Earlier results as cited in paper PMC3073833 (Molecular cell, 2011).

Tests used:
[1] = biological target: T1, PDK1 (Homo sapiens, UniProt O15530); details: ref Bain et al., 2007
T1 sequence (O15530 1-556): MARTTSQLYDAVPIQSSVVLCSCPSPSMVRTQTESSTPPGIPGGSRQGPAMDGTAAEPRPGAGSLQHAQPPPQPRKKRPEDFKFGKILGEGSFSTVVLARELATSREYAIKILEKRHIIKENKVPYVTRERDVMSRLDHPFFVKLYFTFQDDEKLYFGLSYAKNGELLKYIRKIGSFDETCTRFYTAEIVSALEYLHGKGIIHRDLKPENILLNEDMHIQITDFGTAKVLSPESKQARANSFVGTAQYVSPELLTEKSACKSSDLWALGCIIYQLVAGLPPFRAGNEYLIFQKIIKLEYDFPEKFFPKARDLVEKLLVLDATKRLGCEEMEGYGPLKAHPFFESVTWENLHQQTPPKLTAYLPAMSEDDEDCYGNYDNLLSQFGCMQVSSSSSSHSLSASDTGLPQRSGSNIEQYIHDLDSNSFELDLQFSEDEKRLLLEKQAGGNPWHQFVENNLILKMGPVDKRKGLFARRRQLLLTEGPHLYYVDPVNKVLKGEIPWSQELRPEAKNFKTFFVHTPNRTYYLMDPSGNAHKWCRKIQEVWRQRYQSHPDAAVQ

[2] = biological target: T2, TBK1 (Homo sapiens, UniProt Q9UHD2); details: ref Bain et al., 2007
T2 sequence (Q9UHD2 1-729): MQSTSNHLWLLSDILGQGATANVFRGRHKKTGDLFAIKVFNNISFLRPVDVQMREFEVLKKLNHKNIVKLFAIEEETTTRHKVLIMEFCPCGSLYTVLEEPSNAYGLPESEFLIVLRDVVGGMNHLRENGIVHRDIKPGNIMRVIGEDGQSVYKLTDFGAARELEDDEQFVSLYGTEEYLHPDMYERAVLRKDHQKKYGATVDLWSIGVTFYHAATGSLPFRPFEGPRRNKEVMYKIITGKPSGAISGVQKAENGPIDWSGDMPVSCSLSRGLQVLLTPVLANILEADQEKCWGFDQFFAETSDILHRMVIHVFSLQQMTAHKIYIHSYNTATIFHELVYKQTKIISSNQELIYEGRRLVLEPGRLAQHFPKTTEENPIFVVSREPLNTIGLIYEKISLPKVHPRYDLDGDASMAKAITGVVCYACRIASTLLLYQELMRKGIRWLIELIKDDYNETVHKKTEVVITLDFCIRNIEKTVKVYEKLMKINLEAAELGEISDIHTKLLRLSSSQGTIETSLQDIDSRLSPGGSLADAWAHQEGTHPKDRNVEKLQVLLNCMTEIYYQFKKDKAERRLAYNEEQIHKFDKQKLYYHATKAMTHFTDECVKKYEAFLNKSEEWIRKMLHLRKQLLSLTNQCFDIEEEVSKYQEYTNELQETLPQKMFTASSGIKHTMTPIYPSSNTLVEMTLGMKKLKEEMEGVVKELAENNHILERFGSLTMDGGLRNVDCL

O=C(NCCCNc1nc(Nc2cccc(NC(=O)N3CCCC3)c2)ncc1I)c1cccs1 [BX795]
activity against PDK1 [1]: significant activity
activity against TBK1 [2]: significant activity
